These results are taken from paper PMC4413198, “Inhibition of N-Type Calcium Channels by Fluorophenoxyanilide Derivatives” (Marine Drugs, 2015).

Several values for one entry are separate records, joined by “and”; a condition that tells them apart may be missing. Equal values may be shown once. Read-outs that look alike come from different tables or passages of the source.

The target in experiment [1] is T1, human Cav2.2 channels (Homo sapiens, UniProt Q00975). Briefly: SH-SY5Y neuroblastoma FLIPR assay of KCl-evoked calcium responses in presence of nifedipine. Particulars: for extent of inhibition of KCl-induced Ca2+ responses: in words; for inhibition at 300 µM: SH-SY5Y, read-out: % Max inhibition. The class given is cell-based.
T1 sequence (Q00975 whole entry): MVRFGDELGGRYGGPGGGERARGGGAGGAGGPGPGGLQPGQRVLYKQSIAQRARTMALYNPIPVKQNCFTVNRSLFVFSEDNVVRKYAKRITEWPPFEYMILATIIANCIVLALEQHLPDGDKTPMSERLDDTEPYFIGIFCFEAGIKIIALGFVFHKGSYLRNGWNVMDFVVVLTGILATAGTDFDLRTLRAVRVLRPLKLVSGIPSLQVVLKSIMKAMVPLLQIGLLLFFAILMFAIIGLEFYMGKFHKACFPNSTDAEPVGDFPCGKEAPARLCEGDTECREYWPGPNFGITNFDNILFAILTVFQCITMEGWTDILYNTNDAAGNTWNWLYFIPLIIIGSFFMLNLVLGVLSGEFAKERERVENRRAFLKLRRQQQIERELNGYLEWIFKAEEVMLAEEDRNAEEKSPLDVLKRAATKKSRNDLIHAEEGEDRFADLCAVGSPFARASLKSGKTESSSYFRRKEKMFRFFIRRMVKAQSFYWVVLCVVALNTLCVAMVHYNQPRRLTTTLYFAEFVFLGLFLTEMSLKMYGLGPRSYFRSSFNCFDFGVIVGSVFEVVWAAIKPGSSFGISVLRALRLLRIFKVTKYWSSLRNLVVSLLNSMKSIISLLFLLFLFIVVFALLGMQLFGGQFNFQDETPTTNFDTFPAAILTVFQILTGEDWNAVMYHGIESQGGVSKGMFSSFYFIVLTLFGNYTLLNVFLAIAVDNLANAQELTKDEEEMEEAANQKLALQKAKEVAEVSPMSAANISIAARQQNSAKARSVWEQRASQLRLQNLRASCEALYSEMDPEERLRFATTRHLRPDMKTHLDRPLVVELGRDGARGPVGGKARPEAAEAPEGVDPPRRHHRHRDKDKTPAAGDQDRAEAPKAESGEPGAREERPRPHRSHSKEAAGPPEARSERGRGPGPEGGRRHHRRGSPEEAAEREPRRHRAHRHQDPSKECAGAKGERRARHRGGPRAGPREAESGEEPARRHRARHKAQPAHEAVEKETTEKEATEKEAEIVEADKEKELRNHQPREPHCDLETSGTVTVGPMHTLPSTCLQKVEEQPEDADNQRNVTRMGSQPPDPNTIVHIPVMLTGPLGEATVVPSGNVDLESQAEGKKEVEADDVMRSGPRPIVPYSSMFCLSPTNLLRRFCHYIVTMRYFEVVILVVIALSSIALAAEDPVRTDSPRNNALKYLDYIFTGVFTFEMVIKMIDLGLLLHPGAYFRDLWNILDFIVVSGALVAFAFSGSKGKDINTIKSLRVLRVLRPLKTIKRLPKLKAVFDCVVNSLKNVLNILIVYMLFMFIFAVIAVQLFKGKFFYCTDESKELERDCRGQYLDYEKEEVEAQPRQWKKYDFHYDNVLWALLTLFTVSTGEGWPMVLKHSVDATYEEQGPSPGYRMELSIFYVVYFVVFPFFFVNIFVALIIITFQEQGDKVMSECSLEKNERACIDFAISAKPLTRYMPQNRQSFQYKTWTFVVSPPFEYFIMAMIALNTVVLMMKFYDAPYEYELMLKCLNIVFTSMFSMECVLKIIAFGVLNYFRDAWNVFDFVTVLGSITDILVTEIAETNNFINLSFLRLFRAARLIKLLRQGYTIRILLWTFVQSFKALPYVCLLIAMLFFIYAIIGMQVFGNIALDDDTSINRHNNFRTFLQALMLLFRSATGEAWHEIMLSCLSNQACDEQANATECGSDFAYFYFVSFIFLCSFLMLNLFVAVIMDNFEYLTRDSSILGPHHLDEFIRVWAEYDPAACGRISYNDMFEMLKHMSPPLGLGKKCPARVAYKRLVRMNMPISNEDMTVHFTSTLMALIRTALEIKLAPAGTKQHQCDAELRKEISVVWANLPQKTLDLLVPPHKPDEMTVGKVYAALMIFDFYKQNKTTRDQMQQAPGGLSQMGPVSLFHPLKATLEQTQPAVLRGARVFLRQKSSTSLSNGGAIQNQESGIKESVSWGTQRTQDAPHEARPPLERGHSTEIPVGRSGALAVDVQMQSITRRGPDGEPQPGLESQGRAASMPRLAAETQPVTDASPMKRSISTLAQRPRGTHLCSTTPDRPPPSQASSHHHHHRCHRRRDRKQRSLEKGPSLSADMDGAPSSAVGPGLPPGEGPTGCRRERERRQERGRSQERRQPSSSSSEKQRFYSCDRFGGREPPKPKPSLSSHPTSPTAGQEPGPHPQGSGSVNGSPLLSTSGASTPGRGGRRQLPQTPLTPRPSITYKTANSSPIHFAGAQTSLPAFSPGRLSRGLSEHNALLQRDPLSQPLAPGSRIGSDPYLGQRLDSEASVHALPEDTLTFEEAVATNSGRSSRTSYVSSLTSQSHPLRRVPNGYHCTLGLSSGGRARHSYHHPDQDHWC
T1 sequence (P54284 whole entry partner): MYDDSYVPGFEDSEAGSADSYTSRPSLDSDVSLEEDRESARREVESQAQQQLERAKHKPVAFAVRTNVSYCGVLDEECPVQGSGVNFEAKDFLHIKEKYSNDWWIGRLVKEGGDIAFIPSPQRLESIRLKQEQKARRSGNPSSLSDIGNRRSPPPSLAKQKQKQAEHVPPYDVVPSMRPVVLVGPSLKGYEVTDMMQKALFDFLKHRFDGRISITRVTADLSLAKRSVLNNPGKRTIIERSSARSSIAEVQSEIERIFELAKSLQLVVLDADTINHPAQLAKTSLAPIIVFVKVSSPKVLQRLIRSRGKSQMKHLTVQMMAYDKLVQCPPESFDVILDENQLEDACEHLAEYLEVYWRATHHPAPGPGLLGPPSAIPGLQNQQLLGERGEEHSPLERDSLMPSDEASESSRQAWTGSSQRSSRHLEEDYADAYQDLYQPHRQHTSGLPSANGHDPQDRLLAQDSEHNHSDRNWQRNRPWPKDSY
T1 sequence (P54289 25-956 partner limits assumed): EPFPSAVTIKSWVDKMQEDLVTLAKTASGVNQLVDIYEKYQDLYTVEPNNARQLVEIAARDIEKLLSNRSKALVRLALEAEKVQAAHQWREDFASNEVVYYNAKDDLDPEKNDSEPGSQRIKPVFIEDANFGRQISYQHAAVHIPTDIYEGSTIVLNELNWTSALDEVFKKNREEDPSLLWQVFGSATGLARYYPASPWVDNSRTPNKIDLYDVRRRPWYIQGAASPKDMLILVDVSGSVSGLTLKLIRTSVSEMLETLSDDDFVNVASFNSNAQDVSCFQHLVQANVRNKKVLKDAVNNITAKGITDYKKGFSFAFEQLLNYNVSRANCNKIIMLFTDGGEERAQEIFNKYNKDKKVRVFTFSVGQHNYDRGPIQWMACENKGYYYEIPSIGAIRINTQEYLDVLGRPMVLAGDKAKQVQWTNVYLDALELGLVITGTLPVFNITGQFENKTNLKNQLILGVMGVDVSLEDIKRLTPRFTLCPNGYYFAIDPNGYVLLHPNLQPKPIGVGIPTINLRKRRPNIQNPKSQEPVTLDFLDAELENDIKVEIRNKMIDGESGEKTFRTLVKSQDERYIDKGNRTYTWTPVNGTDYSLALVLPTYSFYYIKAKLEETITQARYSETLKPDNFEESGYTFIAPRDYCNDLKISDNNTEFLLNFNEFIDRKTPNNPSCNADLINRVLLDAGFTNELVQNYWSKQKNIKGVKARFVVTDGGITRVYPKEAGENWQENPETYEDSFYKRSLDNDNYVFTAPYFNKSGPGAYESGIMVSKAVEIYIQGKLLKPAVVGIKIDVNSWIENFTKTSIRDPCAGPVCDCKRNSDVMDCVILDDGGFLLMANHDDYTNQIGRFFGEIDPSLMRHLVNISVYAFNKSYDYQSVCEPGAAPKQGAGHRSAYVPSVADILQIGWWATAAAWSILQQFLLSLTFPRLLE
T1 sequence (P54289 957-1103 partner limits assumed): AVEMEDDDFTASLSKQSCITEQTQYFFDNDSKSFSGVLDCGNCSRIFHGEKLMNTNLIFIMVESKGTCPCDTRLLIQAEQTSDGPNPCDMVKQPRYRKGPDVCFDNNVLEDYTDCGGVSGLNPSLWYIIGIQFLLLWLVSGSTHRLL
The next experiment concerns N-type channel. To be noted: cited from earlier work.
The target of experiment [2] is T1, human Cav2.2 channels. Particulars: HEK293 cells stably expressing human Cav2.2; n = 4–7; personal communication ref 40; read-out: IC50, block of calcium currents; cited from earlier work.
On the set-up of experiment [3]: method as in earlier work. To be noted: primary endpoint; cited from earlier work.
Setting [4] is: SH-SY5Y cells, 90 mM KCl and 5 mM CaCl2, 10 µM nifedipine, 5 min pre-treatment.
Setting [5] is: SH-SY5Y cells, 90 mM KCl and 5 mM CaCl2, 10 µM nifedipine, 5 min pre-treatment, read-out: IC50.

For the compound `NCCCOc1ccc(C(=O)Nc2cccc(Oc3ccc(F)cc3)c2)cc1` [5b, 4-(3-Aminopropoxy)-N-(3-(4-fluorophenoxy)phenyl)benzamide], the logIC50 result on human Cav2.2 channels [1] (setting [4]) was “–4.45”. In addition, on human Cav2.2 channels [1] (setting [5]), the IC50 was found to be 35 µM. For the same compound, at human Cav2.2 channels [1] (SH-SY5Y cells), the “extent of inhibition of KCl-induced Ca2+ responses” value is given as “fully blocked”.
The corresponding values for `NCCCOc1ccc(C(=O)Nc2ccccc2Oc2ccc(F)cc2)cc1` [5a, 4-(3-Aminopropoxy)-N-(2-(4-fluorophenoxy)phenyl)benzamide] are “–4.34”, 46 µM and “fully blocked”.
As to `NCCCCCCCC(=O)Nc1ccc(OCCCN)cc1C(=O)Nc1ccc(Oc2ccc(F)cc2)cc1` [compound 4], the “activity in radioligand-displacement assay (in words)” value in the experiment with N-type channel is listed as “comparatively weak activity”.
Regarding `NCCCOc1ccc(C(=O)Nc2ccc(Oc3ccc(F)cc3)cc2)cc1` [5c, 4-(3-Aminopropoxy)-N-(4-(4-fluorophenoxy)phenyl)benzamide], at human Cav2.2 channels [1] (setting [4]), the logIC50 result is given as “~–3.12”. The IC50 at human Cav2.2 channels [1] (setting [5]) came to 764 µM. The “extent of inhibition of KCl-induced Ca2+ responses” value at human Cav2.2 channels [1] (SH-SY5Y cells) is “partially inhibited responses”. Further, the inhibition at 300 µM on human Cav2.2 channels [1] was found to be 30%.
In the case of `Cl.N=C(N)NCCCOc1ccc(C(=O)Nc2ccccc2Oc2ccc(F)cc2)cc1` [6a, N-(2-(4-Fluorophenoxy)phenyl)-4-(3-guanidinopropoxy)benzamide hydrochloride], the IC50 at human Cav2.2 channels [2] was 36.3 ± 2.4 µM. Moreover, the logIC50 result on human Cav2.2 channels [1] (setting [4]) is recorded as “–3.90”. Moreover, on human Cav2.2 channels [1], the inhibition at 300 µM worked out at 65%.
Consider `N=C(N)NCCCCCCCC(=O)Nc1ccc(OCCCNC(=N)N)cc1C(=O)Nc1ccc(Oc2ccc(F)cc2)cc1` [compound 3, reference compound], for which, in the experiment on N-type channel, the “activity in radioligand-displacement assay (in words)” value is “most potent fluorinated analogue”. At human Cav2.2 channels [1], the “extent of inhibition of Ca2+ responses at 1 mM” value is listed as “only partially inhibited responses”, the logIC50 result was “~–2.84” and the inhibition at 300 µM was 15%. Also, the IC50 on human Cav2.2 channels [1] (IC50) was ~1450 µM and 1450 µM.
Take `Cl.N=C(N)NCCCOc1ccc(C(=O)Nc2cccc(Oc3ccc(F)cc3)c2)cc1` [6b, N-(3-(4-Fluorophenoxy)phenyl)-4-(3-guanidinopropoxy)benzamide hydrochloride]: the logIC50 entry at human Cav2.2 channels [1] (setting [4]) was “–3.73”. Besides, at human Cav2.2 channels [1] (setting [5]), the IC50 came to 185 µM.
Turning to `O=C(CC(c1ccccc1)c1ccccc1)N1CCN(C(c2ccccc2)c2ccccc2)CC1` [Z160], the “outcome of Phase II clinical studies” value in experiment [3] is on record as “failed to meet the primary endpoint”.
As for `Cl.N=C(N)NCCCOc1ccc(C(=O)Nc2ccc(Oc3ccc(F)cc3)cc2)cc1` [6c, N-(4-(4-Fluorophenoxy)phenyl)-4-(3-guanidinopropoxy)benzamide hydrochloride], at human Cav2.2 channels [1] (setting [4]), the logIC50 entry is “–3.14”. Moreover, on human Cav2.2 channels [1] (setting [5]), the IC50 is 723 µM. At human Cav2.2 channels [1] (SH-SY5Y cells), the “extent of inhibition of KCl-induced Ca2+ responses” value is “partially inhibited responses”. Besides, the inhibition at 300 µM on human Cav2.2 channels [1] is 19%.

For orientation: IC50 means the concentration needed to halve the response being measured. A word on the inhibition: it is the drop in the measured response relative to a control, in per cent.
